Values of other authors in patent US20050287230A1, “Method of producing ginsenoside 20 (R)-Rh2 and composition of matter thereof” (priority 2004, published 2005).
Read-outs that look alike come from different tables or passages of the source.

Tests used:
[1] = Stomach irrigation with 2 g/kg
[2] = subcutaneous injection 10 mg/kg
LAK cells = details: tumor patient
[3] = tested on: Morris liver cancer, human cervical cancer, B16 malignant melanoma and Hela cells
HRA cells = details: dosage-dependent
rhTNF-a = rhTNF-a (Homo sapiens, UniProt P01375); details: external experiment
sarcoma 180 = details: 5 mg/kg dosage
[4] = mouse, orally taken

Chain of rhTNF-a (P01375 77-233 limits assumed): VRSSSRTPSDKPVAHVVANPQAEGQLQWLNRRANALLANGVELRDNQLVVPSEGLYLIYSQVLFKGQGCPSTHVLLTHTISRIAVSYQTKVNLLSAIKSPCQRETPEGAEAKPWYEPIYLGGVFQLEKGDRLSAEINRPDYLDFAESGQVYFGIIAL

CC(C)=CC[C@@H](O)C1=CC(=O)c2c(O)ccc(O)c2C1=O [Shikonin]
solubility in water: insoluble | death [1]: no dead mouse

C[C@H]1[C@H](C)CC[C@]2(C(=O)O)CC[C@]3(C)C(=CC[C@@H]4[C@@]5(C)CC[C@H](O)C(C)(C)[C@@H]5CC[C@]43C)[C@H]12 [Ursolic acid]
solubility in water: insoluble | reversal of the inhibition function of MΦ (J744 macrophage; 50 μg/ml): partially deteriorates | reversal of the inhibition function of MΦ (J744 macrophage; 100 μg/ml): totally deteriorate | serum gorge invert ammonia enzyme [2]: can reduce

CC(C)=CCC[C@@](C)(O)[C@H]1CC[C@]2(C)[C@@H]1[C@H](O)C[C@@H]1[C@@]3(C)CC[C@H](O)C(C)(C)[C@@H]3[C@@H](O[C@@H]3O[C@H](CO)[C@@H](O)[C@H](O)[C@H]3O)C[C@]12C [ginsenoside 20(R)-Rh1]
inhibition of HL60 tumor strain (HL60): inhibit the human promyelcytic leukemia HL60 tumor strain significantly

CC(C)=CCC[C@](C)(O[C@@H]1O[C@H](CO)[C@@H](O)[C@H](O)[C@H]1O)[C@H]1CC[C@]2(C)[C@@H]1[C@H](O)C[C@@H]1[C@@]3(C)CC[C@H](O)C(C)(C)[C@@H]3[C@@H](O[C@@H]3O[C@H](CO)[C@@H](O)[C@H](O)[C@H]3O[C@@H]3O[C@@H](C)[C@H](O)[C@@H](O)[C@H]3O)C[C@]12C [ginsenoside Re]
level above which effect upon LAK activity appears (LAK cells): > 5 µg/mL

CC(C)=CCC[C@](C)(O)[C@H]1CC[C@]2(C)[C@@H]1[C@H](O)C[C@@H]1[C@@]3(C)CC[C@H](O[C@@H]4O[C@H](CO)[C@@H](O)[C@H](O)[C@H]4O)C(C)(C)[C@@H]3CC[C@]12C [ginsenoside Rh2, ginseng dialcohol-3-O-β-D-glucopyranoside]
inhibition of HL60 tumor strain (HL60): inhibit the human promyelcytic leukemia HL60 tumor strain significantly | inhibition of HL60 tumor strain (HL60; listed as ginsenoside-Rh2): significant effect | inhibition effect on the proliferation ([3]; 2-10 μg/ml in culture solution): different degrees of inhibition effect | inhibition on the proliferation function ([3]; external experiment): outstanding inhibition | effective range for inhibition of proliferation (HRA cells): 10˜100 μmol/L

CC(C)=CCC[C@](C)(O[C@@H]1O[C@H](CO[C@@H]2OC[C@H](O[C@@H]3OC[C@@H](O)[C@H](O)[C@H]3O)[C@H](O)[C@H]2O)[C@@H](O)[C@H](O)[C@H]1O)[C@H]1CC[C@]2(C)[C@@H]1[C@H](O)C[C@@H]1[C@@]3(C)CC[C@H](O[C@@H]4O[C@H](CO)[C@@H](O)[C@H](O)[C@H]4O[C@@H]4O[C@H](CO)[C@@H](O)[C@H](O)[C@H]4O)C(C)(C)[C@@H]3CC[C@]12C [ginsenoside-Ra1]
increase of rhTNF-a activity (rhTNF-a): 134 times

CC(C)=CCC[C@](C)(O)[C@H]1CC[C@]2(C)[C@@H]1[C@H](O)C[C@@H]1[C@@]3(C)CC[C@H](O)C(C)(C)[C@@H]3[C@@H](O[C@@H]3O[C@H](CO)[C@@H](O)[C@H](O)[C@H]3O)C[C@]12C [ginsenoside-Rh1]
concentration that completely inhibits the proliferation (B16 melanoma cells): above 8.0 μg/ml

Lentinan
solubility in water: almost indissoluble | inhibition rate of anti-tumor (sarcoma 180): 97.5% | acute toxicity LD50 [4]: > 1250 mg/kg
